Measured values as given in patent US20170307610A1, “COMPOUNDS THAT BIND DYSTROGLYCAN AND USES THEREOF” (OREGON HEALTH & SCIENCE UNIVERSITY, priority 2014, published 2017).

What was measured:
Format in all cases: cell-based, mouse
E3D1 MECs = assay: Pulsed time course of Rhod-Ln internalization, flow cytometry
Method: To explore the dynamics of laminin internalization, steady-state time course experiments (measuring internalization in the continuous presence of labeled laminin) and pulsed time course experiments were performed. In pulsed time course experiments, the cells were exposed to exogenous Rhod-Ln at 4° C. to prevent internalization, excess unbound Rhod-Ln was washed away, and then cells were returned to 37° C. to allow synchronized internalization and trafficking to proceed. […] Following pulsed and synchronized laminin exposure, Rhod-Ln was again observed to internalize within 1 hour, but reached a maximum at 8 hours, after which the levels of internal laminin declined (FIG. 4A). After 24 hours, internal Rhod-Ln levels declined to ˜37% of the maxima, indicating degradation (MFI: 315±3.5 to 119±11.5). To determine if laminin was degraded using classical degradation pathways, pulsed time course experiments in the presence of leupeptin (lysosome inhibitor) or […] (proteasome inhibitor) were performed.
Laminin labeling—Laminin-111 (1 mg) (Sigma-Aldrich Corp., St. Louis, Mo., USA) was dialyzed twice overnight against 500 ml of PBS with 10 μM CaCl2. The dialyzed laminin was then reacted with 10 μg NHS-rhodamine, or a 50 fold molar excess of NHS409 CypHer5 (GE) for 2 hr on ice, followed by dialysis twice overnight against 500 ml of PBS with 10 μM CaCl2.
Flow Cytometry—Cells were plated in 12 well plates at 200,000 cells/well. The following day, media was changed to serum-free media with or without 10 μg/ml rhodamine laminin or 40 μg/ml FITC-dextran (500S-Sigma-Aldrich Corp., St. Louis, Mo., USA). Unless otherwise indicated, cells were incubated 18-24 hrs, washed once with PBS, and cells trypsinized. Cells were washed in 5 ml cold PBS/1 mM EDTA, pelleted, and resuspended in 1 ml PBS/1 mM EDTA. Using a BD FACScan flow cytometer (BD Biosciences, San Jose, Calif., USA), 10,000 cells/well were counted, background fluorescence from the cell counts with no added laminin subtracted and the mean fluorescence intensity values reported. Graphed data are compiled from duplicate wells from each experiment with a minimum of three separate experiments, unless indicated otherwise.

MEpG MECs (DG−/− or DG+) = assay: Laminin internalization in dystroglycan-deleted or re-expressing cells, flow cytometry; conditions: n=6
Description: Genetic manipulation of laminin receptor expression was employed in order to identify the specific receptor(s) mediating laminin internalization. […] To test the role of DG in laminin internalization, an MEC cell line containing an engineered dystroglycan deletion (MEpG) was used (Weir M L et al, 2006 supra). The MEpG cell line was infected with retroviral empty vector (creating control DG−/− cells) or retrovirus expressing DG (creating DG+ cells). Immunoblotting confirmed the expected presence or absence of DG expression in these cell types (FIG. 11A). […] The compiled mean fluorescence intensity (MFI) data of cells expressing DG was nearly four-fold higher than cells lacking DG expression (DG+=18.04±4.6; DG−/−=4.84±1.43, n=6, FIG. 7C). Therefore, the majority of laminin internalization observed in functionally normal mammary epithelial cells appeared to depend on dystroglycan function.
(§1) Cell culture—Primary mammary epithelial cells from control or ΔDGK14-Cre mid-pregnant mice were obtained as previously described (Weir et al, 2006 supra). DG-knockout (MEpG and MEpL cells), and WT E3D1 mammary epithelial cells were established as described previously (Weir et al, 2006 supra) from floxed-DG mice. β1 int-knockout (E3D1 cre19) MECs were established from floxed -β1 int primary MECS, as above. MECs were grown in DME/F12, 2% FBS, 10 μg/ml insulin and 5 ng/ml EGF (BD Biosciences, San Jose, Calif., USA). Human DG, β1 int, or wedge β1 int genes (Luo B H et al, Proc Natl Acad Sci USA 102, 3679-3684 (2005); incorporated by reference herein) were cloned into the retroviral expression vector, pBMN-IRES-PURO as described previously (Weir et al, 2006 supra) and verified by sequencing. […] These cultures produced >95% astrocytes as determined by staining with GFAP astrocyte marker antibody.
(§2) Flow Cytometry—Cells were plated in 12 well plates at 200,000 cells/well. […] Using a BD FACScan flow cytometer (BD Biosciences, San Jose, Calif., USA), 10,000 cells/well were counted, background fluorescence from the cell counts with no added laminin subtracted and the mean fluorescence intensity values reported. […]

[1] = system: E3D1cre19 MECs (β1 Int−/− or β1 Int+); assay: Laminin internalization in β1 integrin-deleted or re-expressing cells, flow cytometry
Description: The integrin family of ECM receptors is expressed in the DG−/− cell population (MepG-vec and MepL-vec cell lines, FIG. 11A), but are apparently unable to mediate significant laminin internalization alone (FIG. 7B). To directly test the role of integrins in laminin internalization, an MEC cell line containing an engineered β1 integrin (β1 int) deletion, E3D1cre19 (β1 Intl−/−) was used (cre19-vec, FIG. 11A, see Example 10 infra). These β1 int−/− cells were infected with the empty vector retrovirus or with a WT β1 int expressing retrovirus. The re-expression of WT β1 integrin in β1 int−/− cells produced a modest but statistically insignificant change ([…]) in laminin internalization (MFI β1 Intl−=21.4±3; β1 Int+=26.8±1.2; n=6, p=0.17) (FIG. 7D). […] Therefore, although the β1 integrins are not required for the majority laminin internalization, they can enhance it, possibly as co-receptors with DG (Leonoudakis D et al, 2010 supra; Weir M L et al, 2006 supra).
as §1, with “USA).” for “USA). Human DG, β1 int, or wedge β1 int genes (Luo B H et al, Proc Natl Acad Sci USA 102, 3679-3684 (2005); incorporated by reference herein) were cloned into the retroviral expression vector, pBMN-IRES-PURO as described previously (Weir et al, 2006 supra) and verified by sequencing.”
as §2

## Rhod-Ln: laminin-111 labeled with NHS-rhodamine; dystroglycan binding reagent
E3D1 MECs; pulsed and synchronized laminin exposure, 4° C. then 37° C.
  time at which Rhod-Ln was observed to internalize: ≤ 1 h
E3D1 MECs; pulsed laminin exposure
  time of maximum internal laminin: 8 h
E3D1 MECs; pulsed, 24 hours
  MFI of internal Rhod-Ln after 24 hours: 119±11.5
E3D1 MECs; pulsed, after 24 hours
  internal Rhod-Ln level relative to the maxima: ~37%
E3D1 MECs; pulsed, maximum (8 hours)
  MFI of internal Rhod-Ln at the maximum: 315±3.5
MEpG MECs (DG−/− or DG+); cells expressing DG, 18 hours
  MFI of internalized laminin, DG+ cells: 18.04±4.6
MEpG MECs (DG−/− or DG+); cells lacking DG, 18 hours
  MFI of internalized laminin, DG−/− cells: 4.84±1.43
MEpG MECs (DG−/− or DG+); compiled MFI
  more laminin internalized by DG+ MECs than DG−/− MECs: 380%
[1]; WT β1 integrin re-expressed, n=6
  MFI of internalized laminin, β1 Int+ cells: 26.8±1.2
[1]; empty vector, n=6
  MFI of internalized laminin, β1 Int−/− cells: 21.4±3
[1]; statistically insignificant, p=0.17
  increase in laminin internalization on re-expression of WT β1 integrin: 20%
